Some results are limits rather than exact numbers.

As a reminder, the EC50 is the concentration giving half of the maximal effect.

In the assay the test system is THP-1 viability, CellTiter-Glo luminescence, 72 h. The experiment in a line: PubChem AID 2252.
Turning to `O=C(C[n+]1cnn(CC(=O)c2ccc(Cl)cc2Cl)c1)c1ccc([N+](=O)[O-])cc1`, the EC50 is 26.4 µM.

On to `Oc1c(CN2CCOCC2)cc(COCc2ccccc2)c2cccnc12`, for which the EC50 is 2.24 µM.

Consider `CC(C)(C)c1nc(SCC(=O)NCc2ccco2)c2ccccc2n1`, for which the EC50 is 30 µM.

Consider `O=C(/C=C/c1ccco1)NC(=S)Nc1cccc(-c2nc3ccccc3o2)c1`, for which the EC50 is < 0.1 µM.

`Nc1c2ccccc2nc2ccccc12`: the EC50 was 4.83 µM.

`OC(CNCCc1ccccc1)COc1ccc(OCC(O)CNCCc2ccccc2)cc1` (stereo not drawn): the EC50 is 7.35 µM.

As for `N=C1c2ccccc2CN1c1ncccn1`, the half-maximal effective concentration (EC50) is < 0.1 µM.

In the case of `C/C(=N\NC(=O)c1ccc(CN2CCc3ccccc3C2)cc1)c1ccccc1O`, the EC50 is 7.89 µM.

`O=[N+]([O-])c1cccc2c(N3CCCC3)ccnc12`: the EC50 was 9.77 µM.

`CC1CCCC(NC(=O)COC(=O)CCSc2ccccc2)C1C` (stereo not drawn): the EC50 is < 0.1 µM.

In the case of `CCOC(=O)C1=C(c2ccccc2)NC(N)=NC1c1ccc(OCc2ccc(C(=O)OC)cc2)cc1` (stereo not drawn), the EC50 is 7.56 µM.

For `CC(C)NC(=O)CN1CCN(Cc2nc(C(c3ccccc3)c3ccccc3)no2)CC1`, the EC50 is < 0.1 µM.

As to `COc1ccccc1Nc1nc(NCc2ccco2)c2ccccc2n1`, the EC50 was 13.3 µM.

Regarding `CCCCCNc1nc(N2CCCC2)c2c(c1C#N)CCN(C)C2`, the EC50 was 23.3 µM.

On to `NC1=C(Br)C(=O)c2ccccc2C1=O`, for which the EC50 is 9 µM.

Regarding `CN1CCN(Cc2cc(COCc3ccccc3)c3cccnc3c2O)CC1`, the EC50 is 2.82 µM.

For `CCOC(=O)c1c(-c2ccccc2)oc2ccc(OCC(O)CNCCN(C)C)cc12` (stereo not drawn), the EC50 was 5.89 µM.

On to `Clc1cccc(CN2CCc3c([nH]c4ccccc34)C2)c1Cl`, for which the EC50 was 8.82 µM.

Take `Cc1ccc2c(c1)c1c(n2CC(O)CN2CCC(C)CC2)CCCC1` (stereo not drawn): the EC50 is 16 µM.

On to `N#CC1=C2N=C(N)c3ccccc3N2C2=C(C(=O)CCC2)C1c1cccc(Cl)c1` (stereo not drawn), for which the EC50 was 27.1 µM.

For the compound `CCc1nc(SCC(=O)Nc2ccc(N(C)C)cc2)c2ccccc2n1`, the EC50 is 35.3 µM.

As for `COc1cccc(/C=N/NC(=O)C(=O)N2CCCC2)c1O`, the EC50 was 40 µM.

As to `O=C(CCN1CCOCC1)N/N=C/c1cc(Br)cc(Br)c1O`, the EC50 is 24.8 µM.

`Cc1ccc2sc(N(CCCN(C)C)C(=O)c3ccc(Br)s3)nc2c1C`: the EC50 is 21.2 µM.

Consider `O=c1[nH]cc(F)c(=O)[nH]1`, for which the EC50 was 6.24 µM.

`Cc1nc(NC2=NCN(CCCN3CCOCC3)CN2)nc2c(C)cccc12`: the concentration giving a half-maximal response (EC50) is 13.9 µM.

For the compound `CC(=O)NC(=S)NNC(=O)c1ccc(Br)cc1`, the EC50 is 27.6 µM.

As to `CCOC(=O)C1=C(O)c2ccccc2C(=O)/C1=C\c1ccc(C)cc1`, the EC50 is 23.3 µM.

On to `C/C(=N\NC(=O)c1cccc(Br)c1)c1ccccn1`, for which the EC50 was 1.55 µM.

On to `c1ccc(Sc2cccc3ccccc23)c(CNC2=NCCN2)c1`, for which the half-maximal effective concentration (EC50) was 5.87 µM.

In the case of `Oc1ccc(C[C@@H]2CNCCN2CCC23CC4CC(CC(C4)C2)C3)cc1`, the EC50 was 9.86 µM.

Consider `O=C(C[n+]1cc(Br)cc2ccccc21)c1ccc(Cl)cc1`, for which the EC50 is 44 µM.

As for `CCCOc1ccc(C(=O)NNC(=S)NC(=O)CC)cc1`, the 50% effective concentration (EC50) was 2.81 µM.

As to `COc1ccc(/C=C/c2cc[n+](C(=O)Cc3ccccc3)cc2)cc1`, the concentration for a half-maximal effect (EC50) was 3.92 µM.

In the case of `c1ccc(CN2CCN(c3nc(NCc4ccco4)c4ccccc4n3)CC2)cc1`, the EC50 was 15.3 µM.

For `CCOC(=O)c1nc(C)n(-c2cc(Cl)ccc2Cl)n1`, the EC50 was 14.9 µM.

As to `COc1cc2c(cc1O)[C@H](Cc1ccc(Oc3cc(C[C@@H]4NCCc5cc(OC)c(O)cc54)ccc3O)cc1)NCC2`, the EC50 was 48.3 µM.

With `Cc1[nH]c2ccc(OC(F)(F)F)cc2c1CCNCc1ccc(Cl)cc1`, the EC50 is 4.99 µM.

`Cc1ccc(C(=O)Sc2cccccc2=O)cc1`: the half-maximal effective concentration (EC50) was 2.27 µM.

With `O=C(Cc1cccs1)N/N=C\c1ccc([N+](=O)[O-])s1`, the EC50 is 12.5 µM.

Turning to `Clc1ccc(CN2CCc3c([nH]c4ccccc34)C2)cc1Cl`, the EC50 is 8.16 µM.

On to `Cc1ccc2cc(CN(CCN(C)C)C(=O)Nc3ccc(Cl)cc3)c(=O)[nH]c2c1`, for which the EC50 was 19.1 µM.

Regarding `O[C@@H](c1cc(C(F)(F)F)nc2c(C(F)(F)F)cccc12)[C@H]1CCCCN1`, the EC50 was 3.98 µM.

Regarding `N/C(=N\OC(=O)N1CCOCC1)c1ccccc1`, the EC50 was 15.5 µM.

As to `CSc1ccc2c(c1)C(N1CCN(C)CC1)Cc1ccccc1S2` (stereo not drawn), the EC50 was 9.33 µM.

In the case of `Brc1ccc2c(c1)C(OC1CN3CCC1CC3)c1ccccc1CS2` (stereo not drawn), the EC50 was 8.31 µM.

In the case of `CCCNC1=C(C)C(=O)C2=C(C1=O)C(COC(N)=O)[C@]1(OC)C3NC3CN21` (stereo partly drawn), the EC50 was 8.84 µM.

On to `c1cc2c(cc1Oc1nc(N3CCOCC3)nc(N3CCOCC3)n1)OCO2`, for which the EC50 is < 0.1 µM.

In the case of `Fc1ccc(Nc2c3c(nc4ccccc24)CCC3)cc1`, the half-maximal effective concentration (EC50) was 6.33 µM.

For `Cc1ccc2nc(/C(C#N)=C\c3ccc([N+](=O)[O-])o3)[nH]c2c1`, the EC50 is 1.25 µM.

As for `Nc1cccc2nc3ccccc3cc12`, the EC50 is 5.32 µM.

As for `COc1ccc2nc(C)cc(Nc3ccc(N4CCOCC4)cc3)c2c1`, the EC50 was 45.9 µM.

Turning to `CC(C)N=C(N)N=C(N)Nc1ccc(Cl)cc1`, the EC50 is 35.1 µM.

Turning to `COc1cccc2[nH]c3c(N4CCN(Cc5ccc6c(c5)OCO6)CC4)ncnc3c12`, the EC50 is 42.2 µM.

As to `NC1=NC2=C(CCCC2)C2(CCCCC2)S1`, the EC50 was 37.4 µM.

With `CN1CCN(C2=Cc3ccccc3Sc3cc(F)c(Cl)cc32)CC1`, the EC50 is 18.2 µM.

`COc1cc(Br)cc(C=Nc2cccc(C(F)(F)F)c2)c1O`: the EC50 was 50 µM.

On to `O=C(Oc1c(Cl)cc(Cl)c2cccnc12)c1cccc([N+](=O)[O-])c1`, for which the EC50 is 14.6 µM.

Turning to `N=c1c2c(n(Cc3ccc(Cl)cc3Cl)c3c1CCC3)CCCC2`, the EC50 was 3.66 µM.

On to `CC(=O)NC(c1ccc2ccccc2c1)c1ccc2cccnc2c1O` (stereo not drawn), for which the EC50 is 0.36 µM.

With `CC1(C)CC(N2CCN(C(c3ccccc3)c3ccccc3)CC2)=CC(=[N+]2CCCCC2)C1`, the EC50 was 1.05 µM.

With `CCOc1ccc(-c2nc(N)ncc2-c2ccccc2)c(O)c1`, the EC50 is 46.8 µM.

With `Cc1cccc2sc(N(CCCN(C)C)C(=O)COc3ccc(Cl)cc3)nc12`, the EC50 is 24.9 µM.

For the compound `Cc1cc(O)c2c(c1)C(=O)C13C(=C2O)C(=O)[C@H]2[C@@H](O)[C@@H]1[C@H]1[C@H](O)[C@@H]3C(=O)C3=C(O)c4c(O)cc(C)cc4C(=O)C312` (stereo partly drawn), the EC50 was 6.36 µM.

For the compound `Cc1ccc2nsnc2c1S(=O)(=O)NCc1ccc2c(c1)OCO2`, the half-maximal effective concentration (EC50) was < 0.1 µM.

With `COc1ccc(Nc2nc(NCC3CCCO3)c3ccccc3n2)c(OC)c1` (stereo not drawn), the EC50 was 9.34 µM.

On to `Clc1ccc2c(c1)C(N1CCNCC1)Cc1ccccc1S2` (stereo not drawn), for which the EC50 is 7.4 µM.

For the compound `NC1=NC[C@H](Cc2ccc(O)cc2)N1CCc1cccc2ccccc12`, the EC50 is 32.7 µM.

In the case of `Cc1ccc(N2C(N)=C(C#N)C(c3cccnc3)C3=C2CC(C)(C)CC3=O)cc1` (stereo not drawn), the EC50 is 32.9 µM.

Take `Cc1cc([N+](=O)[O-])nn1CC(=O)N/N=C/c1ccccc1O`: the EC50 is 6.62 µM.

With `COc1ccc(C(=O)N/N=C/c2sc3ccccc3c2O)cc1`, the concentration giving a half-maximal response (EC50) is 3.36 µM.

With `CCCCOc1ccc(NC2=NC3(CCCCC3)N=C(N)N2)cc1`, the concentration for a half-maximal effect (EC50) was 7.18 µM.

Turning to `Cc1ccc2c(c1)C1CN(C)CCC1N2Sc1ccccc1[N+](=O)[O-]` (stereo not drawn), the EC50 is 21.1 µM.

The values above are taken from PubChem BioAssay AID2252 (Southern Research Specialized Biocontainment Screening …, 2010).
